Here are results for six compounds from paper PMC5937946 (Biochemistry, 2017).

Like-named read-outs stand apart in the source and are kept apart here.

Data set [1] concerns C. albicans (ATCC, SC5314). Briefly: Antifungal susceptibility assay. Particulars: for growth inhibition of C. albicans by metal ion alone: concentration range tested 0–100 µM, no peptide.
The conditions of data set [2]: pH 7.4; cited from earlier work.
The conditions of data set [3]: pH 7.4; cited from earlier work. This is another data set of the same source.
Data set [4] relates to C. albicans (ATCC, SC5314).
The subject of data set [5] is C. albicans cell-associated Cu. As to the kind of experiment: ICP-MS of cell-associated Cu content. The format is cell-based, Candida albicans. Particulars: cells grown overnight with BCS.

As to `O=C(O)CN(CCN(CC(=O)O)CC(=O)O)CC(=O)O` [EDTA, ethylenediaminetetraacetic acid], the “concentrations well tolerated by C. albicans, ligand alone” value in data set [1] (initial susceptibility testing of the ligands alone) was at most 250 µM. On to `O=S(=O)([O-])[O-].[Cu+2]` [CuSO4, copper sulfate], for which the “growth inhibition of C. albicans by metal ion alone” value in data set [1] is on record as “Neither Cu(II) nor Fe(III) by themselves inhibited growth”.

Consider `O=C(O)CN(CC(=O)O)CC(=O)O` [NTA, nitrilotriacetic acid], for which, in data set [2], the “log KNTA(Cu(II))” value was 10.68. As for `O=S(=O)([O-])c1ccc(-c2nnc(-c3ccccn3)nc2-c2ccc(S(=O)(=O)[O-])cc2)cc1.[Na+].[Na+]` [Fz, Ferrozine], the “log KFz2Cu(I)” value in data set [3] is listed as 11.56. Turning to `Cc1cc(-c2ccc(S(=O)(=O)O)cc2)c2ccc3c(-c4ccc(S(=O)(=O)O)cc4)cc(C)nc3c2n1` [BCS, bathocuproine disulphonate], in data set [4], the “concentrations well tolerated by C. albicans, ligand alone” value was at most 2000 µM. In addition, in data set [5], the “decrease in cell-associated Cu compared to basal level” value was 70%. On to `[Cl][Fe]([Cl])[Cl]` [Fe(III), FeCl3], for which the “growth inhibition of C. albicans by metal ion alone” value in data set [1] was “Neither Cu(II) nor Fe(III) by themselves inhibited growth”.
